The test system of this test is human sebocytes. Put plainly: Sebum suppression in cultured human sebocytes (14C-acetate incorporation), alone or with retinol. As to conditions: for sebum suppressive activity (in words): agent alone, summary of Tables 1-6. Format: cell-based. As for the experimental part: Compounds A through E were tested for their potential to suppress sebum expression, alone or in the presence of a retinoid.
Secondary cultures of human sebocytes obtained from an adult […] were grown in 48-well tissue culture plates (Costar Corp.; Cambridge, MA) or 96-well tissue culture plates (Packard Co.; Meriden, CT) until confluent.
Sebocyte growth medium consisted of Clonetics Keratinocyte Basal Medium (KBM) supplemented with 14 μg/ml bovine pituitary extract, 0.4 μg/ml hydrocortisone, 5 μg/ml insulin, […], 1.2 ×10^-10 M cholera toxin, 100 units/ml penicillin, and 100 μg/ml streptomycin.
All cultures were incubated at 37° C. in the presence of 7.5% CO2. Medium was changed three times per week.
On the day of experimentation, the growth medium was removed and the sebocytes washed three times with sterile Dulbecco's Modified Eagle Medium (DMEM; phenol red free). Fresh DMEM was added to each sample (duplicates, triplicates, or quadruplicates depending on the experiment) with 5 microliter of test agent solubilized in ethanol either alone or in the presence of one or 10 micromolar of retinol. Controls consisted of addition of ethanol alone, retinol alone, or phenol red, which has estrogen-like activity and is included as a positive control.
Each plate was returned to the incubator for 20 hours followed by the addition of 14C-acetate buffer (5 mM final concentration, 56 mCi/mmol specific activity). Sebocytes were returned to the incubator for four hours after which each culture was rinsed three times with phosphate buffered saline to remove unbound label. Radioactive label remaining in the sebocytes was harvested and counted using a Beckman scintillation counter.

Read-outs that look alike come from different tables or passages of the source.

Here are results for five molecules from patent publication US20020025331A1, “Cosmetic compositions containing substituted amine derivatives” (priority 2000, published 2002).

With `CC1=C(/C=C/C(C)=C/C=C/C(C)=C/CO)C(C)(C)CCC1` [Retinol, reference compound], the “sebum suppressive activity (in words)” value was “inactive”. Where the note is “Homo sapiens, Experiment A, 10 μM test agent alone, read-out: % of Control”, the activity at 10 µM is 98.3%.
With `CC1=C(/C=C/C(C)=C/C=C/C(C)=C/C=O)C(C)(C)CCC1` [Retinal, reference compound], the activity at 1 µM (Homo sapiens, Experiment B (n = 3), 1 μM test agent alone, read-out: % of Control) is 104%. Further, the activity at 10 µM (Homo sapiens, Experiment B (n = 3), 10 μM test agent alone, read-out: % of Control) turned out to be 101%.
Regarding `O=S1(=O)OC(c2ccc(O)cc2)(c2ccc(O)cc2)c2ccccc21` [Phenol Red, reference compound], for the setting “Homo sapiens, Experiment B (n = 3), 28 μM alone, read-out: % of Control”, the activity at 28 µM is 86.4%. The activity at 280 µM (Homo sapiens, Experiment B (n = 3), 280 μM alone, read-out: % of Control) was 52.2%. For the same molecule, the “% Reduction” value (Table 3 (n = 4), 28 μM alone) is 74.7%.
As to `CSc1ccc(NC(C)CC(c2ccccc2)c2c(O)c3ccccc3oc2=O)cc1` (centres unmarked) [Compound A], the “sebum suppressive activity (in words)” value is “had sebum suppressive activity”. Also, the “% of Control” value (Experiment A, 1 μM test agent + 10 μM Retinol) is given as 94.3%. In addition, the “% of Control” value (Experiment A, 1 μM test agent alone) is on record as 93.8%. Where the note is “Experiment A, 10 μM test agent + 10 μM Retinol”, the “% of Control” value came out at 88.6%. The “% of Control” value (Experiment A, 10 μM test agent alone) is recorded as 78.1%. Further, the “% of Control” value (Experiment A, 100 μM test agent + 10 μM Retinol) came out at 6.2%. Moreover, the “% of Control” value (Experiment A, 100 μM test agent alone) is given as 12.5%. In addition, for the setting “Experiment B (n = 3), 1 μM test agent + 1 μM Retinol”, the “% of Control” value was determined as 93.3%. The “% of Control” value (Experiment B (n = 3), 1 μM test agent + 10 μM Retinol) was determined as 85.4%. Further, the “% of Control” value (Experiment B (n = 3), 1 μM test agent alone) is on record as 102.1%. Further, under “Experiment B (n = 3), 10 μM test agent + 1 μM Retinol”, the “% of Control” value amounted to 80.2%. For the setting “Experiment B (n = 3), 10 μM test agent + 10 μM Retinol”, the “% of Control” value was determined as 78.6%. In addition, the “% of Control” value (Experiment B (n = 3), 10 μM test agent alone) is recorded as 89.4%. The “% of Control” value (Experiment B (n = 3), 100 μM test agent + 1 μM Retinol) was 19.7%. The “% of Control” value (Experiment B (n = 3), 100 μM test agent + 10 μM Retinol) is on record as 26.5%. Also, the “% of Control” value (Experiment B (n = 3), 100 μM test agent alone) is reported as 23.5%.
As for `COc1ccc(OC)c(C(C)NC/C=C(\C)CCC=C(C)C)c1` (centres unmarked) [Compound C], the “sebum suppressive activity (in words)” value is recorded as “had sebum suppressive activity”. Moreover, the “% of Control” value (96 Well Plate (n = 2), 10 μM test agent + 1 μM Retinol) worked out at 45.2%. For the same molecule, where the note is “96 Well Plate (n = 2), 10 μM test agent alone”, the “% of Control” value is 72.3%. The “% of Control” value (96 Well Plate (n = 2), 50 μM test agent + 1 μM Retinol) worked out at 0.3%. Moreover, for the setting “96 Well Plate (n = 2), 50 μM test agent alone”, the “% of Control” value was determined as 34.2%. For the same molecule, the “sebum suppressive activity when combined with retinol / a retinoid (in words)” value (in the presence of a retinoid (retinol)) is “improved sebum suppressive activity”.
